According to patent publication US11352391B2, “Compositions for inducing urinary voiding and defecation” (Dignify Therapeutics, LLC, priority 2017, dated 2022):
Where a SMILES comes first, the peptide text is derived from it.

Key:
[1] = Saline solubility of heptapeptides; format: physicochemical
Procedure: Heptapeptides A-K shown below in Table 1 (SEQ ID NOs: 1-11) were synthesized according to standard Fmoc-mediated solid-phase techniques and purified under typical C18 reverse-phase conditions.
Compounds D-K were considered to be insoluble in saline (<1 mg/mL).

[2] = system: anesthetized dog; experiment: Colorectal pressure manometry in anesthetized dog; format: in vivo
Procedure: Animal preparation: Naïve beagle dogs were fasted for 12-24 hours and received a warm water enema the night prior to, and the morning of, the experiment to clear the rectum and lower colon of feces. The day of the experiment, a 20 gauge IV catheter (Terumo Surflo) was placed in the cephalic vein for anesthetic induction (propofol, 10 mg/kg; IV) and delivery of IV fluids (5-10 ml/kg/hr) and compounds. The sedated dog was intubated with a 5-6 Fr tracheal tube and was maintained on 2-3% isoflurane via a ventilator (15-25 breaths/min; tidal volume […]) for the remainder of the experiment.
Bowel contractility: For colorectal pressure manometry, an ˜3 inch balloon catheter was inserted into the rectum and secured to the tail with tape. This catheter was connected via a three-way stopcock to a pressure transducer (UTAH MEDICAL PRODUCTS; DelTran II) for pressure recording. Data were recorded using PowerLab/8SP acquisition system using LabChart software (version 7.3.7; ADINSTRUMENTS, Australia). Arterial pressure, ECG, temperature and blood oxygen saturation (spO2) were monitored throughout the experiment (MEDTRONIC LIFEPAK12). Dogs were recovered in a quiet room under veterinary supervision.

[3] = biological target: T1, recombinant hNK2R expressed in CHO cells (Homo sapiens, UniProt P21452); experiment: Intracellular calcium mobilization (FLIPR) in CHO-hNK2 cells; format: cell-based
T1 sequence (P21452 1-398): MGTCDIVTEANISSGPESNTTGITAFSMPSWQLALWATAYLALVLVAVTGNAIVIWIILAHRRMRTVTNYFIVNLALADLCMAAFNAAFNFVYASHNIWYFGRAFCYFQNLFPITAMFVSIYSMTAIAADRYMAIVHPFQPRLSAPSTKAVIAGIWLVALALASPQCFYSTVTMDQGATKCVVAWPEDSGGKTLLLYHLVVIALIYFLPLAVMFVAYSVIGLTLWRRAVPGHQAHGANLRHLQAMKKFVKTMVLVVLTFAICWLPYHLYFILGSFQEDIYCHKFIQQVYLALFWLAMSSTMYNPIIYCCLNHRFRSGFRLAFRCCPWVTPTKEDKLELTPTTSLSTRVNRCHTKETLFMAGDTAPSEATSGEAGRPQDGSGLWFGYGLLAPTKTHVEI
Procedure: (§1) CHO-hNK1 and CHO-hNK2 cells were seeded into black walled clear-bottom 384-well plates) at a density of 10,000 and 15,000 cells per well in 50 μL culture media, respectively, and grown overnight at 37° C. in a humidified CO2-incubator. Cells were washed in washing buffer using the EMBLA 384 instrument, leaving 20 μL of buffer per well after the final aspiration. Cells were then incubated at 37° C. with the cytoplasmic Ca2+ indicator Fluo-4 AM (final concentration 1 μM) in assay buffer (20 mM HEPES, 145 mM NaCl, 5 mM KCl, 5.5 mM glucose, 1 mM MgCl2 and 2 mM CaCl2, pH 7.4, 0.05% Pluronic F-127 and 0.1% BSA) containing 2.5 mM probenecid for […] (cell loading). Cells were then washed 3 times in washing buffer (20 mM HEPES, 145 mM NaCl, 5 mM KCl, 5.5 mM glucose, 1 mM MgCl2 and 2 mM CaCl2, pH 7.4 and 2.5 mM probenecid) using the EMBLA 384 instrument, leaving 30 μL of buffer in each well after the last wash. Loaded cell plates were transferred to the FLIPR machine and calcium responses were monitored as described below. A dual read-out FLIPR protocol was used, allowing for characterization of both agonist and antagonist profiles. For quality control, in each compound plate the signal was monitored by evaluating the responses to the reference standards (NKA and Substance P).
(§2) Concentration response curves of compounds were run in duplicate on two different occasions from the same stock solutions. Test solutions were prepared from 10 mM stock solutions in DMSO and 1 μL of each solution was stamped into V-bottom assay plates containing 49 μL assay buffer. The final concentration of DMSO was 0.5% in each well.

[4] = biological target: recombinant hNK1R expressed in CHO cells (Homo sapiens, UniProt P25103); experiment: Intracellular calcium mobilization (FLIPR) in CHO-hNK1 cells; format: cell-based; settings: calcium mobilization, CHO-hNK1 cells; read-out: hNK1 EC50
Procedure: as §1, §2

[5] = biological target: T2, human NK2 Receptor (hNK2R) (Homo sapiens, UniProt P21452); experiment: [125I]-NKA radioligand competition binding to human recombinant NK2Rs (CHO-hNK2 membranes)
T2 sequence (P21452 1-398): T1 sequence (P21452 1-398)
Procedure: (§3) After removal of the supernatant the cell pellet was washed and collected by re-suspension in PBS and centrifugation.
(§4) Frozen pellets were thawed and homogenized in 10 volumes (w/v) of membrane preparation buffer (50 mM HEPES pH 7.4, 1 mM EDTA, 50 μg/mL bacitracin and protease inhibitors) using a Polytron Ultraturrax (twice for 15 s per cycle). […] Protein concentration was determined using BioRad Protein Assay (Milan, Italy) with a BSA standard curve.

[6] = Pharmacokinetics in rat plasma after cassette IV bolus dosing; settings: Sprague-Dawley, in vivo, iv
Procedure: The concentrations of compounds (SEQ ID NOS: 1-11) were measured in rat plasma after intravenous (IV) bolus dosing to determine pharmacokinetic profiles of individual compounds.
Animal preparation: In vivo studies were performed in anesthetized adult Sprague Dawley rats. Rats were anesthetized with urethane (1.2-1.4 g/kg subcutaneous injection). Surgical procedures were then performed with the addition of isoflurane anesthesia (0.05-1.5% in 02) as needed. A venous cannula was inserted into the jugular vein for intravenous (IV) administration of compounds.
In vivo dosing and plasma sampling: Compounds were divided into two groups (soluble and insoluble). Each group was dosed as a cassette in which four compounds (100 μg/kg each compound) were combined into a single IV bolus injection to anesthetized adult Sprague-Dawley rats. Soluble compounds were dissolved in saline. Insoluble compounds were dissolved in a 10% ethanol/saline solution. Rats were cassette dosed based on weight using 0.1 mg/mL solutions of individual compounds. Blood samples (700 μL) were collected using a carotid artery cannula into EDTA tubes containing ascorbic acid (final concentration 1%), and plasma was isolated.
Bioanalytical assay: A reversed-phase HPLC with Turbo Ion Spray MS/MS detection method was developed for bioanalysis. Mass spec transition and settings were individually optimized for each compound and then compounds were cassetted for HPLC method development and optimization. [^13C9; ^15N] [Lys5,MeLeu9,Nle10]-NKA(4-10) was used as an internal standard (IS). Analyte-to-IS peak area ratios for individual compounds were used to create linear calibration curves (1-20 ng/mL) using 1/×2 weighted least-squares regression analysis for evaluation of method linearity, precision and accuracy. For plasma concentration measurements, plasma samples were spiked with IS, processed by extraction, and analyzed using LC-MS/MS. Positive (M+H)+ ions for individual compounds and IS were monitored in MRM mode.

[7] = biological target: human NK1 Receptor (hNK1R) (Homo sapiens, UniProt P25103); experiment: [3H]-septide radioligand competition binding to human recombinant NK1Rs (CHO-hNK1 membranes); settings: displacement of 5.0 nM [3H]-septide, CHO-hNK1 membranes; read-out: hNK1 binding Ki
Procedure: as §3, §4

Sequence of recombinant hNK1R expressed in CHO cells (P25103 whole entry): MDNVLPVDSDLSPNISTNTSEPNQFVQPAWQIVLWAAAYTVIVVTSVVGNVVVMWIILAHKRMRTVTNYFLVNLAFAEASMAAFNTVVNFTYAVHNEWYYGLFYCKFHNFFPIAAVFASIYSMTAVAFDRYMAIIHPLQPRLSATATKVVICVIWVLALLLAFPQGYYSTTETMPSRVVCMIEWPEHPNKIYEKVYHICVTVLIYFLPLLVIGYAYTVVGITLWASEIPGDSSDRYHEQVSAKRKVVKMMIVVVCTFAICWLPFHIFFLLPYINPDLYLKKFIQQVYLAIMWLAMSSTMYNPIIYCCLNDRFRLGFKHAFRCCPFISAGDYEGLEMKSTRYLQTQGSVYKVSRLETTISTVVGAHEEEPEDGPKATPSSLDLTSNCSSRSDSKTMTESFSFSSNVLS
Sequence of human NK1 Receptor (hNK1R) (P25103 whole entry): as above

solubility [1]: < 1000 µg/mL
EC50 ([3]; calcium mobilization, CHO-hNK2 cells, read-out: hNK2 EC50): 3 nM
hNK2 selectivity ratio ([3]; ratio of EC50s hNK1R/hNK2R): 26
EC50 [4]: 78.2 nM
Ki ([5]; displacement of 0.1 nM [125I]-NKA, CHO-hNK2 membranes, read-out: hNK2 binding Ki): 16.4 nM
hNK2 selectivity ratio ([5]; ratio of Kis hNK1R/hNK2R): 188.58
half-life [6]: 3.3 to 4.7 min
Ki [7]: 3090 nM
Structure (SMILES): CCCC[C@H](NC(=O)[C@H](CC(C)C)NC(=O)CCNC(=O)[C@@H](NC(=O)[C@H](Cc1ccccc1)NC(=O)[C@H](CCCCN)NC(=O)[C@@H](N)CC(=O)O)C(C)C)C(N)=O [Compound G, Asp-Lys-Phe-Val-(β-Ala)-Leu-Nle-NH2] (HELM PEPTIDE1{D.K.F.V.[bAla].L.[Nle].[am]}$$$$V2.0; N-terminus assumed)
duration of colorectal pressure response ([2]; IV bolus (B and E 3 μg/kg; G 3, 30 and 66 ug/kg)): approximately 5 minutes
onset of increase in colorectal pressure ([2]; IV bolus (E 3 μg/kg; G 3, 30 and 66 ug/kg)): ≤ 1 min
